Laboratory results taken from patent US12162863B2, “Modulators of stimulator of interferon genes (STING)” (RYVU THERAPEUTICS S.A., priority 2018, dated 2024).

Legend:
human STING = human STING (Homo sapiens, UniProt Q86WV6); assay: Fluorescence Thermal Shift assay; format: binding; details: 50 μM compound; STING 0.1 mg/ml; 20 minutes preincubation; read-out: [hSTING] FTS, ΔTm [° C.] for 50 μM
Experimental: Fluorescence Thermal Shift Assay Compounds of the present invention were tested for binding to human STING in Fluorescence Thermal Shift assay. STING was preincubated with the compounds for 20 minutes in 50 mM Hepes, 150 mM NaCl, pH 7.5 in 16 μl volume, following by adding 4 μl of SyproOrange dye dilution (ThermoFisher, cat no. S-6651). Final STING concentration was 0.1 mg/ml. Thermal unfolding was performed in Real-Time PCR QuantStudio 6 Flex System (Applied Biosystems), from 25 to 99° C., with continuous ramp mode and ramp rate 0.033° C./s. The data were analyzed using Protein Thermal Shift Software (ThermoFisher). […] For example, ΔTm [° C.] of FTS assay for following examples are: […]

[1] = tested on: interferon regulatory factor (IRF) pathway in THP-1 dual cells; assay: THP-1 Dual Reporter Assay, IRF pathway (luciferase reporter); format: cell-based; details: Homo sapiens, THP1-Dual, 18 h of stimulation, luminescence
Experimental: (§1) THP-1 Dual Reporter Assay
(§2) Compounds of the present invention were tested for their activity using THP-1 dual cells (Invivogen, cat no. thpd-nfis) allowing for simultaneous study of NF-κB pathway and the interferon regulatory factor (IRF) pathway. THP-1 dual cells contain luciferase reporter gene under the control of an ISG54 (interferon-stimulated gene) minimal promoter in conjunction with five interferon-stimulated response elements and a secreted embryonic alkaline phosphatase reporter gene under the control an IFN (interferon)-β minimal promoter fused to five copies of the NF-κB consensus transcriptional response element with three copies of the c-Rel binding site. Following 18 h of stimulation with STING agonist, medium was collected and transferred onto fresh cell culture plate. To verify activity of the IRF pathway, luminescence activity was measured with standard laboratory plate reader immediately after addition 10 μl of the medium to 50 μl of luminescence reagent (Invivogen, cat. No. rep-qlc2). To verify activity of NF-κB pathway, 20 μl of the medium was mixed with 80 μl of a detection medium (Invivogen, cat. No. rep-qb2) and incubated for 2 hours at 37° C. in a humidified atmosphere containing 5% CO2. Next, absorbance at 630 nm was recorded using standard laboratory plate reader.

[2] = tested on: NF-κB pathway in THP-1 dual cells; assay: THP-1 Dual Reporter Assay, NF-κB pathway (SEAP reporter); format: cell-based; details: Homo sapiens, THP1-Dual, 18 h of stimulation, absorbance at 630 nm, read-out: THP1 Dual EC50 (μM) NFkB
Experimental: as §1, §2

Sequence of human STING (Q86WV6 whole entry H232R): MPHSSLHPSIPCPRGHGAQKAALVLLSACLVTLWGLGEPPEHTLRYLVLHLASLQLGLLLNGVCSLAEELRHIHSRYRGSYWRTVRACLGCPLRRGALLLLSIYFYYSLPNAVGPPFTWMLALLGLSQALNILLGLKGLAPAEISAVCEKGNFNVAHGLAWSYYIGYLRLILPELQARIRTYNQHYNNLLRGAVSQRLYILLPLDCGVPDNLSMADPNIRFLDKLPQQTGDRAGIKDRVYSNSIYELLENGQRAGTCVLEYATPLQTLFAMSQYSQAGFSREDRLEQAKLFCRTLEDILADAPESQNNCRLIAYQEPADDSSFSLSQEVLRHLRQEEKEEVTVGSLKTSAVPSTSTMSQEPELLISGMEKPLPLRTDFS

| SMILES | ΔTm at 50 µM (human STING) [°C] | EC50 [1] [µM] | EC50 [2] [µM] |
| --- | --- | --- | --- |
| COc1cc(CN(CCCn2ccnc2)Cc2coc3c(C)c(C)ccc3c2=O)ccn1 [Example 51, 3-({[3-(1H-imidazol-1-yl)propyl][(2-methoxypyridin-4-yl)methyl]amino}methyl)-7,8-dimethyl-4H-chromen-4-one] | > 2.5 | ≤ 10 | ≤ 10 |
| O=c1c(CN(CCCn2ccnc2)Cc2ccncc2)coc2ccc(F)cc12 [Example 29, 6-fluoro-3-({[3-(1H-imidazol-1-yl)propyl][(pyridin-4-yl)methyl]amino}methyl)-4H-chromen-4-one] | > 2.5 | ≤ 10 | 10 to 20 |
| O=c1c(CN(CCCc2ccccn2)Cc2ccncc2)coc2ccccc12 [Example 6, 3-({[3-(pyridin-2-yl)propyl][(pyridin-4-yl)methyl]amino}methyl)-4H-chromen-4-one] | < 2.5 | ≥ 20 | ≥ 20 |
| O=c1c(CN(CCCn2cnc3ccccc32)Cc2ccncc2F)coc2c1ccc1ccccc12 [Example 85, 3-({[3-(1H-1,3-benzodiazol-1-yl)propyl][(3-fluoropyridin-4-yl)methyl]amino}methyl)-4H-benzo[h]chromen-4-one] | < 2.5 | ≥ 20 | ≥ 20 |
| O=c1c(CN(CCCn2ccnc2)Cc2ccncc2)coc2c(F)cc(F)cc12 [Example 45, 6,8-difluoro-3-({[3-(1H-imidazol-1-yl)propyl][(pyridin-4-yl)methyl]amino}methyl)-4H chromen-4-one] | < 2.5 | 10 to 20 | ≥ 20 |
| CN1CCN(c2cc3occ(CN(CCCc4cccnc4)Cc4ccncc4)c(=O)c3cc2F)CC1 [Example 58, 6-fluoro-7-(4-methylpiperazin-1-yl)-3-({[3-(pyridin-3-yl)propyl](pyridin-4-ylmethyl)amino}methyl)-4H-chromen-4-one] | > 2.5 | ≤ 10 | ≤ 10 |
| CN(C)c1ccc(CCCN(Cc2ccncc2)Cc2coc3c(ccc4ccccc43)c2=O)cn1 [Example 60, 3-[({3-[6-(dimethylamino)pyridin-3-yl]propyl}[(pyridin-4-yl)methyl]amino)methyl]-4H-benzo[h]chromen-4-one] | < 2.5 | ≥ 20 | ≥ 20 |
| COc1cc(CN(CCCc2cc[nH]c(=O)c2)Cc2coc3c(ccc4ccccc43)c2=O)ccn1 [Example 93, 4-(3-{[(2-methoxypyridin-4-yl)methyl]({4-oxo-4H-benzo[h]chromen-3-yl}methyl)amino}propyl)-1,2-dihydropyridin-2-one] | > 2.5 | ≥ 20 | ≥ 20 |
| O=c1c(CN(CCCc2ccncc2)Cc2ccncc2)coc2ccccc12 [Example 21, 3-({[(pyridin-4-yl)methyl][3-(pyridin-4-yl)propyl]amino}methyl)-4H-chromen-4-one] | > 2.5 | ≤ 10 | 10 to 20 |
| O=c1c(CN(CCCn2ccnc2)Cc2ccncc2)coc2cc(OCc3ccccc3)ccc12 [Example 13, 7-(benzyloxy)-3-({[3-(1H-imidazol-1-yl)propyl](pyridin-4-ylmethyl)amino}methyl)-4H-chromen-4-one] | > 2.5 | ≤ 10 | ≤ 10 |
| O=c1c(CN(CCCn2ccnc2)Cc2ccncc2)coc2c3c(ccc12)CCCC3 [Example 20, 3-({[3-(1H-imidazol-1-yl)propyl](pyridin-4-ylmethyl)amino}methyl)-4H,7H,8H,9H,10-cyclohexa[h]chromen-4-one] | < 2.5 | ≤ 10 | ≤ 10 |
| O=c1c(CN(CCCn2ccnc2)Cc2ccncc2)coc2ccccc12 [Example 33, 3-({[3-(1H-imidazol-1-yl)propyl](pyridin-4-ylmethyl)amino}methyl)-4H-chromen-4-one] | < 2.5 | 10 to 20 | ≥ 20 |
| O=c1c(CN(CCCn2ccnn2)Cc2ccncc2)coc2cc(Br)ccc12 [Example 22, 7-bromo-3-{[(pyridin-4-ylmethyl)[3-(1H1,2,3-triazol-1-yl)propyl]amino]methyl}-4H-chromen-4-one] | < 2.5 | 10 to 20 | ≥ 20 |
| Cc1oc2ccccc2c(=O)c1CN(CCCc1cccnc1)Cc1ccncc1 [Example 41, 2-methyl-3-({[3-(pyridin-3-yl)propyl][(pyridin-4-yl)methyl]amino}methyl)-4H-chromen-4-one] | > 2.5 | 10 to 20 | 10 to 20 |
| Cc1ccc2c(=O)c(CN(CCCn3cnc4c(N)ncnc43)Cc3ccncc3)c(C)oc2c1C [Example 81, 3-({[3-(6-amino-9H-purin-9-yl)propyl][(pyridin-4-yl)methyl]amino}methyl)-2,7,8-trimethyl-4H-chromen-4-one] | > 2.5 | ≥ 20 | 10 to 20 |
| O=c1c(CN(CCCn2ccnc2)Cc2ccncc2)coc2cc(Br)ccc12 [Example 10, 7-bromo-3-({[3-(1H-imidazol-1-yl)propyl](pyridin-4 ylmethyl)amino}methyl)-4H-chromen-4-one] | > 2.5 | ≤ 10 | 10 to 20 |
| COc1cc(CN(CCCn2ccnc2)Cc2c(C)oc3ccccc3c2=O)ccn1 [Example 46, 3-({[3-(1H-imidazol-1-yl)propyl][(2-methoxypyridin-4-yl)methyl]amino}methyl)-2-methyl-4H-chromen-4-one] | < 2.5 | ≤ 10 | ≥ 20 |
| COc1ccc2ccc3c(=O)c(CN(CCCc4cccnc4)Cc4ccncc4)coc3c2c1 [Example 52, 9-methoxy-3-({[3-(pyridin-3-yl)propyl][(pyridin-4-yl)methyl]amino}methyl)-4H-benzo[h]chromen-4-one] | > 2.5 | ≤ 10 | ≤ 10 |
| Cc1oc2cc(Br)ccc2c(=O)c1CN(CCCn1ccnc1)Cc1ccncc1 [Example 48, 7-bromo-3-({[3-(1H-imidazol-1-yl)propyl][(pyridin-4-yl)methyl]amino}methyl)-2-methyl-4H-chromen-4-one] | > 2.5 | ≤ 10 | ≤ 10 |
| Cc1ccc2c(=O)c(CN(CCCn3cnc4c(=O)[nH]cnc43)Cc3ccncc3)c(C)oc2c1C [Example 75, 9-(3-{[(pyridin-4-yl)methyl][(2,7,8-trimethyl-4-oxo-4H-chromen-3-yl)methyl]amino}propyl)-6,9-dihydro-1H-purin-6-one] | > 2.5 | ≤ 10 | 10 to 20 |
| O=c1c(CN(CCCc2cccnc2)Cc2ccncc2)coc2ccccc12 [Example 19, 3-({[3-(pyridin-3-yl)propyl][(pyridin-4-yl)methyl]amino}methyl)-4H-chromen-4-one] | > 2.5 | ≤ 10 | 10 to 20 |
| CC(CCn1cnc2ccccc21)N(Cc1ccncc1)Cc1coc2c(ccc3ccccc32)c1=O (stereo not drawn) [Example 72, 3-({[4-(1H-1,3-benzodiazol-1-yl)butan-2-yl](pyridin-4-ylmethyl)amino}methyl)-4H-benzo[h]chromen-4-one] | < 2.5 | ≤ 10 | ≤ 10 |
| O=c1c(CN(CCCn2ccccc2=O)Cc2ccncc2)coc2c1ccc1ccccc12 [Example 59, 1-{3-[({4-oxo-4H-benzo[h]chromen-3-yl}methyl)[(pyridin-4-yl)methyl]amino]propyl}-1,2-dihydropyridin-2-one] | < 2.5 | ≤ 10 | ≤ 10 |
| O=c1c(CN(CCCn2ccnc2)Cc2ccncc2)coc2cc(O)ccc12 [Example 16, 7-hydroxy-3-({[3-(1H-imidazol-1-yl)propyl](pyridin-4-ylmethyl)amino}methyl)-4H-chromen-4-one] | > 2.5 | 10 to 20 | ≥ 20 |
| O=c1c(CN(CCCc2cccnc2)Cc2ccncc2)coc2c1cc(F)c1ccccc12 [Example 54, 6-fluoro-3-({[3-(pyridin-3-yl)propyl][(pyridin-4-yl)methyl]amino}methyl)-4H benzo[h]chromen-4-one] | > 2.5 | ≤ 10 | ≤ 10 |
| COc1cc(CN(Cc2cn(C)c3ccccc3c2=O)C(C)CCc2cccnc2)ccn1 (stereo not drawn) [Example 97, 3-({[(2-methoxypyridin-4-yl)methyl][4-(pyridin-3-yl)butan-2-yl]amino}methyl)-1-methyl-1,4-dihydroquinolin-4-one] | > 2.5 | ≤ 10 | ≤ 10 |
